Source: US10765674B2, “Prevention of HIV-infection” (Janssen Sciences Ireland Unlimited Company, priority 2005, dated 2020)
Where two headings read alike, the source gives them in different places.

Assay: Plasma kinetics of TMC278 in beagle dogs after single intramuscular administration
Type: in vivo
Settings: single IM 2.5 mg/kg, aqueous 30% DMA/50% PEG400 solution; for half-life / Cmax / Tmax / AUC(0-t): im; for AUC(0-t): read-out: AUC0-312 h; for concentration at 0 h: 0 h (predose); for concentration at 0.5 h: 0.5 h after dose; for concentration at 1 h: 1 h after dose; for concentration at 2 h: 2 h after dose; for concentration at 4 h: 4 h after dose; for concentration at 8 h: 8 h after dose; for concentration at 24 h: 24 h after dose; for concentration at 32 h: 32 h after dose; for concentration at 48 h: 48 h after dose; for concentration at 72 h: 72 h after dose; for concentration at 96 h: 96 h after dose; for concentration at 144 h: 144 h after dose; for concentration at 192 h: 192 h after dose; for concentration at 240 h: 240 h after dose; for concentration at 312 h: 312 h after dose; for concentration at 36 day: day 36; for concentration at 50 day: day 50; for concentration at 64 day: day 64; for concentration at 78 day: day 78; for concentration at 92 day: day 92; for concentration at 106 day: day 106; for concentration at 120 day: day 120; for concentration at 134 day: day 134; for concentration at 148 day: day 148
Protocol: The present study was performed in order to study the plasma kinetics and the absolute bioavailability of TMC278 in beagle dogs after single intramuscular administration (IM) of an aqueous 30% dimethylacetamide (DMA)/50% polyethylene glycol 400 (PEG400) solution of TMC278 at 2.5 mg/kg. The dogs were dosed IM.
Two male beagle dogs (dog No. 16924 and 16854), approximately 3 years old and weighing between 11 and 12 kg at the start of the experimental phase, were used in the present experiment. The dogs were dosed intramuscularly at 0.1 ml/kg body weight by injecting the formulation in the left (dog No. 16924) or right (dog No. 16854) m. biceps femoris.
One day before dose administration, TMC278 was formulated in an aqueous 30% (w/v) DMA/50% (w/v) PEG400 solution at 25 mg/ml. The ingredients of the solution were: TMC278, DMA 30% (w/v), PEG 400 50% (w/v) and pyrogenic free water. The content of TMC278 in the formulation was checked using LC. The concentration of TMC278 in the formulation was 25 mg/ml.
Blood samples (4 ml on EDTA) were taken from a jugular vein from the dogs at 0 (=predose), 0.5, 1, 2, 4, 8, 24, 32, 48, 72, 96, 144, 192, 240 and 312 h after dose administration. After sampling, the blood samples were immediately placed on melting ice and protected from light. Blood samples were centrifuged at approximately 1900×g for 10 minutes at 5° C. to allow plasma separation. Immediately after separation, plasma samples were protected from light, placed on melting ice and stored at ≤−18° C. until analysis. Frozen plasma samples were transferred to the Bioanalytical Department. Since TMC278 was still detectable in the plasma samples at 312 h post-dose, additional blood samples of both dogs were collected on the days 36, 50, 64, 78, 92, 106, 120, 134 and 148. These samples were analogously processed and analysed.
The concentration of TMC278 in dog plasma was determined by a qualified research LC-MS/MS method after solid phase extraction (SPE). Plasma concentrations of TMC278 were determined after proper sample clean up. The samples (0.1 ml aliquots of plasma) were extracted using a solid phase extraction method (Bond Elut Certify solid phase columns, 130 mg, SPE, Varian). The SPE column was conditioned with 3 ml methanol, 3 ml water and 1 ml acetic acid 1 M.
After addition of 3 ml acetic acid to 0.1 ml aliquots of plasma, the samples were extracted on the column followed by washing the column with 1 ml water, 1 ml acetic acid 1 M and 3 ml methanol. The column was eluted with 3 ml methanol/NH4OH 25% (98:2, v/v). The extract was evaporated to dryness and reconstituted in 150 μl of ammonium formate 0.01 M (adjusted to pH 4 with formic acid)/methanol (50/50). 20 μl-aliquots were injected onto a reversed phase LC-column (100×4.6 mm ID, packed with 3 μm Hypersil C18 BDS) with a flow of 800 μl/min. The elution mixture was ammonium formate 0.01 M (adjusted to pH 4 with formic acid)/methanol (40:60, v/v). The flow-rate to the mass spectrometer was about 100 μl/min after splitting. LC-MS/MS analysis was carried out on an API-3000 system (Applied Biosystems), which was coupled to an HPLC-system.
Individual plasma concentration-time profiles were subjected to a non-compartmental pharmacokinetic analysis. Peak plasma concentrations (Cmax) and corresponding peak times (Tmax) were determined. The AUC from time 0 to time t (AUC0-t, where t is the time point associated with the last measurable concentration above the limit of quantification) was calculated by means of the linear/log trapezoidal rule: i.e. linear trapezoidal rule up to Tmax: AUC0-Tmax=Σ[(ti+1−ti). (Ci+Ci+1)/2], and log trapezoidal for the remainder of the curve: AUCTmax-t=Σ[(ti+1−ti). (Ci−Ci+1)/ln(Ci/Ci+1)], Ci and Ci+1 being the plasma concentrations at times ti and ti+1, respectively. […]

[1] = male, beagle, dog, plasma, 2.5 mg/kg, dog No. 16854
[2] = male, beagle, dog, plasma, 2.5 mg/kg, dog No. 16924
[3] = male, beagle, dog, plasma, 2.5 mg/kg, mean (n=2)
[4] = male, beagle, dog, plasma, intramuscular, 2.5 mg/kg, dog No. 16854
[5] = male, beagle, dog, plasma, intramuscular, 2.5 mg/kg, dog No. 16854, read-out: plasma concentration during the wash-out period
[6] = male, beagle, dog, plasma, intramuscular, 2.5 mg/kg, dog No. 16924
[7] = male, beagle, dog, plasma, intramuscular, 2.5 mg/kg, dog No. 16924, read-out: plasma concentration during the wash-out period
[8] = male, beagle, dog, plasma, intramuscular, 2.5 mg/kg, mean (n=2)
[9] = male, beagle, dog, plasma, intramuscular, 2.5 mg/kg, mean (n=2), read-out: plasma concentration during the wash-out period

In the case of `Cc1cc(C=CC#N)cc(C)c1Nc1ccnc(Nc2ccc(C#N)cc2)n1` [TMC278, 4-[[4-[[4-(2-cyanoethenyl)-2,6-dimethylphenyl]amino]-2-pyrimidinyl]-amino]benzonitrile], the “plasma levels during the wash-out period (range)” value (both dogs, days 36 to 148) is reported as 1.24 to 4.23 ng/mL, the “plasma concentration during the wash-out period” value (dog No. 16924, day 272) is reported as <1.00 ng/mL and the half-life (male, beagle, dog, plasma, 2.5 mg/kg, dog No. 16854, half-life between 8 h and 24 h, read-out: t1/2, 8-24 h (converted)) is reported as 8.9 h. The Cmax [1] was 39.9 ng/mL, the Tmax [1] was 8 h and the AUC(0-t) [1] was 2120 ng·h/mL. The half-life (male, beagle, dog, plasma, 2.5 mg/kg, dog No. 16854, read-out: t1/2, 24-72 h (converted)) was 75.2 h, the half-life (male, beagle, dog, plasma, 2.5 mg/kg, dog No. 16924, half-life between 1 h and 24 h, read-out: t1/2, 1-24 h (converted)) was 15.1 h and the Cmax [2] was 23.8 ng/mL. It also gave a Tmax [2] of 1 h, an AUC(0-t) [2] of 1600 ng·h/mL and a half-life (male, beagle, dog, plasma, 2.5 mg/kg, dog No. 16924, read-out: t1/2, 24-72 h (converted)) of 51 h. For the same compound, the Cmax [3] was 31.9 ng/mL, the Tmax [3] was 5 h and the AUC(0-t) [3] was 1860 ng·h/mL. For the same compound, the half-life (male, beagle, dog, plasma, 2.5 mg/kg, mean (n=2), read-out: t1/2, 24-72 h (converted)) was 63 h, the concentration at 0 h [4] was < 1 ng/mL and the concentration at 0.5 h [4] was 13.5 ng/mL. It also gave a concentration at 1 h [4] of 17 ng/mL, a concentration at 2 h [4] of 20.6 ng/mL and a concentration at 4 h [4] of 27.2 ng/mL. The concentration at 8 h [4] was 39.9 ng/mL, the concentration at 24 h [4] was 11.4 ng/mL and the concentration at 32 h [4] was 10.7 ng/mL. For the same compound, the concentration at 48 h [4] was 9.03 ng/mL, the concentration at 72 h [4] was 7.37 ng/mL and the concentration at 96 h [4] was 6.4 ng/mL. The concentration at 144 h [4] was 3.19 ng/mL, the concentration at 192 h [4] was 2.8 ng/mL and the concentration at 240 h [4] was 6.16 ng/mL. The concentration at 312 h [4] was 4.24 ng/mL, the concentration at 36 day [5] was 3.66 ng/mL and the concentration at 50 day [5] was 4.1 ng/mL. The concentration at 64 day [5] was 2.18 ng/mL, the concentration at 78 day [5] was 2.62 ng/mL and the concentration at 92 day [5] was 2.32 ng/mL. For the same compound, the concentration at 106 day [5] was 2.02 ng/mL, the concentration at 120 day [5] was 1.87 ng/mL and the concentration at 134 day [5] was 1.67 ng/mL. The concentration at 148 day [5] was 1.41 ng/mL, the concentration at 0 h [6] was < 1 ng/mL and the concentration at 0.5 h [6] was 21.3 ng/mL. For the same compound, the concentration at 1 h [6] was 23.8 ng/mL, the concentration at 2 h [6] was 20.9 ng/mL and the concentration at 4 h [6] was 17.1 ng/mL. The concentration at 8 h [6] was 15.1 ng/mL, the concentration at 24 h [6] was 7.7 ng/mL and the concentration at 32 h [6] was 6.65 ng/mL. The concentration at 48 h [6] was 6.03 ng/mL, the concentration at 72 h [6] was 3.9 ng/mL and the concentration at 96 h [6] was 3.97 ng/mL. The concentration at 144 h [6] was 3.65 ng/mL, the concentration at 192 h [6] was 3.57 ng/mL and the concentration at 240 h [6] was 4.38 ng/mL. For the same compound, the concentration at 312 h [6] was 5.97 ng/mL, the concentration at 36 day [7] was 3.05 ng/mL and the concentration at 50 day [7] was 2.12 ng/mL. It also gave a concentration at 64 day [7] of 2.42 ng/mL, a concentration at 78 day [7] of 1.69 ng/mL and a concentration at 92 day [7] of 2.51 ng/mL. For the same compound, the concentration at 106 day [7] was 1.75 ng/mL, the concentration at 120 day [7] was 4.23 ng/mL and the concentration at 134 day [7] was 1.61 ng/mL. For the same compound, the concentration at 148 day [7] was 1.24 ng/mL, the concentration at 272 day (male, beagle, dog, plasma, intramuscular, 2.5 mg/kg, dog No. 16924, day 272, read-out: plasma concentration during the wash-out period) was < 1 ng/mL and the concentration at 0 h [8] was < 1 ng/mL. It also gave a concentration at 0.5 h [8] of 17.4 ng/mL, a concentration at 1 h [8] of 20.4 ng/mL and a concentration at 2 h [8] of 20.8 ng/mL. It also gave a concentration at 4 h [8] of 22.2 ng/mL, a concentration at 8 h [8] of 27.5 ng/mL and a concentration at 24 h [8] of 9.55 ng/mL. The concentration at 32 h [8] was 8.68 ng/mL, the concentration at 48 h [8] was 7.53 ng/mL and the concentration at 72 h [8] was 5.64 ng/mL. For the same compound, the concentration at 96 h [8] was 5.19 ng/mL, the concentration at 144 h [8] was 3.42 ng/mL and the concentration at 192 h [8] was 3.19 ng/mL. For the same compound, the concentration at 240 h [8] was 5.27 ng/mL, the concentration at 312 h [8] was 5.11 ng/mL and the concentration at 36 day [9] was 3.36 ng/mL. It also gave a concentration at 50 day [9] of 3.11 ng/mL, a concentration at 64 day [9] of 2.3 ng/mL and a concentration at 78 day [9] of 2.16 ng/mL. For the same compound, the concentration at 92 day [9] was 2.42 ng/mL, the concentration at 106 day [9] was 1.89 ng/mL and the concentration at 120 day [9] was 3.05 ng/mL. For the same compound, the concentration at 134 day [9] was 1.64 ng/mL, the concentration at 148 day [9] was 1.33 ng/mL and the “t1/2, 24-72 h” value (mean (n=2)) was 63.1 h.
